Laboratory results taken from patent US20260191968A1, “PROTAC DEGRADERS OF MLLT1 AND/OR MLLT3” (DARK BLUE THERAPEUTICS LTD, priority 2024, published 2026).

Tests used:
MV4-11 cells = assay: MV4-11 cellular proliferative assay, Assay Format A (CellTiter-Glo, 120 hours); type: cell-based; conditions: Homo sapiens
Outline: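 Over 120 h, MV4-11 cells seeded at 50 cells/well in IMDM/10% FBS were exposed to compound (10 semi-log dilutions, 30 μM top). Viability was read by CellTiter-Glo luminescence. Signals were normalised to DMSO and reference-compound wells, and AC50 came from a Hill fit.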

MLLT1 = target: T1, MLLT1 (Mus musculus, UniProt F6UGX7); assay: MLLT1 degradation assay in NIH/3T3 cells (JESS), dose response, 5 h; type: cell-based
T1 construct: host or cells: NIH/3T3
T1 sequence (F6UGX7 1-547): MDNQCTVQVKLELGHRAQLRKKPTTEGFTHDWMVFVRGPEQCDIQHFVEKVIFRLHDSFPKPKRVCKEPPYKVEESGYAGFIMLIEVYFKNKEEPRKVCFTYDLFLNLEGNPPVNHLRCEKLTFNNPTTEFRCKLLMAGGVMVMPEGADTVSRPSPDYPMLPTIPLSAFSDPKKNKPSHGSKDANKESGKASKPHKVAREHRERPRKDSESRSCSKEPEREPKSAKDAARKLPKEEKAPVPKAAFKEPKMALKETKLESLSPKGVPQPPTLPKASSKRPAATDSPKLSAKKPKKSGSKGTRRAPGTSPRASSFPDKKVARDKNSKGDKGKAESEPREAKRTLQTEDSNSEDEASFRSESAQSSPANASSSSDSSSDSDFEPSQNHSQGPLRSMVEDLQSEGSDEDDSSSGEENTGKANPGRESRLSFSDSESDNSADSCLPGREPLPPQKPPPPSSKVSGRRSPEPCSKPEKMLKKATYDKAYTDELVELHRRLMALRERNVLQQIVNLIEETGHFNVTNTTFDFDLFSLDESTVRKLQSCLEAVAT
Procedure: MLLT1 degradation efficacy of compounds was tested in an automated chemiluminescent detection system (JESS, Cat #004-650). NIH/3T3 (#CRL-1658, ATCC) were seeded at a density of 0.5 million cells/well in a cell culture treated 6-well cell culture plate in 2 mL of complete medium (DMEM+10% FBS+1X Penicillin-Streptomycin) and incubated at 37° C., 5% CO2. The next day, 10 mM DMSO stocks were prepared, and cells were treated with eight concentrations of test compound, starting from 100 nM, 5-fold dilution, at a final DMSO concentration of 0.1% and incubated for 5 h at 37° C., 5% CO2. Post incubation, cells were washed with HBSS and lysed in 70 μL of RIPA buffer supplemented with Protease inhibitors (sc-24948; Santa Cruz). Protein estimation was done using BCA protein assay kit (23228; Pierce). […] Post run, data was analysed using “Compass for SW” software for chemiluminescent detection. […]
MLLT3 degradation efficacy of compounds was tested in an automated chemiluminescent detection system (JESS, Cat #004-650). […] Post run, data was analysed using “Compass for SW” software for chemiluminescent detection. […]

SMILES: CN1CCC[C@@H]1c1cc2cnc(NC(=O)c3ccc(CCCC#Cc4cccc5c4CN(C4CCC(=O)NC4=O)C5=O)cc3)cc2[nH]1 (stereo partly drawn) [Example 55, 4-(5-(2-(2,6-dioxopiperidin-3-yl)-1-oxoisoindolin-4-yl)pent-4-yn-1-yl)-N-(2-((R)-1-methylpyrrolidin-2-yl)-1H-pyrrolo[3,2-c]pyridin-6-yl)benzamide]
- IC50 (MV4-11 cells): ≤ 100 nM
- Dmax (MLLT1; NIH3T3, read-out: MLLT1 Dmax in NIH/3T3 cells): 96%
- DC50 (MLLT1; NIH/3T3 cells, 5 h): 1.2 nM
